The subject of this assay is CLP surgery-induced sepsis model. The assay is described as follows: Survival in rodent model of surgically-induced sepsis (cecum ligation puncture). It is filed as in vivo, CD rats. The following applies: 30 mg/kg sc within 30 minutes after surgery, end of study (3 days or 72 hours), N=5. How it is done:
The subjects for the study were 10 male CD rats (12-13 weeks of age, 400-450 g).
A solution formulation of 25HC3S sodium salt and its respective vehicle was used for the study. The Vehicle was a solution of 40 mg/mL hydroxypropyl betadex with 10 mM sodium phosphate buffer in 70% (v/v) of 0.9% (w/v) sodium chloride and 30% (v/v) of sterile water. 25HC3S sodium salt was pre-dissolved into the Vehicle solution to result in a drug concentration of 5 mg/mL. The 25HC3S solution was ready-to-use at the start of dosing. Both the vehicle and 25HC3S solution were stored at room temperature. Before dosing, the 25HC3S solution was confirmed to be clear and void of any precipitation. Otherwise, if precipitation was observed, the solution was to be sonicated at room temperature for 10 minutes to dissolve particulates.
The CLP procedure is an established and widely-used approach to investigate the progression and characteristics of clinical sepsis. On the day of surgery, animals were weighed and monitored for their baseline temperature. Animals were anesthetized with isoflurane and depth of anesthesia was checked by toe-pinching. Dipyrone (an analgesic) was given subcutaneously prior to surgery. […]
Rats were monitored for survival for 3 days after CLP surgery and 25HC3S treatment. […]
Animals were monitored for mortality, “clinical signs” and pain level. […]

In the case of `C[C@H](CCCC(C)(C)O)[C@H]1CC[C@H]2[C@@H]3CC=C4C[C@@H](OS(=O)(=O)[O-])CC[C@]4(C)[C@H]3CC[C@]12C.[Na+]` [25HC3S, 5-cholesten-3, 25-diol, 3-sulfate], the “rats that had died” value was 60%.
